Test results: US11820760B2, “Crystalline polymorphs of Bruton's tyrosine kinase inhibitors” (BIOGEN MA INC., priority 2018, dated 2023)

What was measured:
Format in all cases: physicochemical
[1] = PXRD comparison of Form H before and after heating; conditions: heated to 125° C.
Method: Crystallinity of the compound was studied using a XRD-D8 X-ray powder diffractometer using Cu Ka radiation (Bruker, Madison, Wis.). The instrument is equipped with a long fine focus X-ray tube. The tube voltage and amperage were set to 40 kV and 40 mA, respectively. The divergence and scattering slits were set at 1° and the receiving slit was set at 0.15 mm. Diffracted radiation was detected by a Lynxeye detector. A θ-2θ continuous scan at 1.6°/min from 3 to 42° 2θ was used. The sample was prepared for analysis by placing it on a zero background plate. A sample of Form H was heated to 125° C. and PXRD pattern was compared with PXRD pattern for the sample before heating.

[2] = Variable temperature powder X-ray diffraction (VT-PXRD) of crystalline forms
Method: Crystallinity of the compound was studied using a XRD-D8 X-ray powder diffractometer using Cu Ka radiation (Bruker, Madison, Wis.). The instrument is equipped with a long fine focus X-ray tube. The tube voltage and amperage were set to 40 kV and 40 mA, respectively. The divergence and scattering slits were set at 1° and the receiving slit was set at 0.15 mm. Diffracted radiation was detected by a Lynxeye detector. A θ-2θ continuous scan at 1.6°/min from 3 to 42° 2θ was used. The sample was prepared for analysis by placing it on a zero background plate. Variable temperature powder X-ray diffraction (VT-PXRD) of Form B was performed by hearing a sample of Form B to 130° C. under N2, following by cooling back down to 30° C. […] (losing all water at this temperature) under N2, indicating Form B is a hygroscopic anhydrate. Variable temperature powder X-ray diffraction (VT-PXRD) of Form C was performed. A sample of Form C was dehydrated by purging the sample under N2 at 30° C. for 20 minutes and then heated to 100° C. under N2 followed by cooling back down to 30° C. and exposed to air for 20 minutes.

[3] = PXRD of Form P after grinding in water; conditions: Form P with 2.9 wt % water ground in water with mortar and pestle to a viscous slurry
Method: Crystallinity of the compound was studied using a XRD-D8 X-ray powder diffractometer using Cu Ka radiation (Bruker, Madison, Wis.). The instrument is equipped with a long fine focus X-ray tube. The tube voltage and amperage were set to 40 kV and 40 mA, respectively. The divergence and scattering slits were set at 1° and the receiving slit was set at 0.15 mm. Diffracted radiation was detected by a Lynxeye detector. A θ-2θ continuous scan at 1.6°/min from 3 to 42° 2θ was used. The sample was prepared for analysis by placing it on a zero background plate. Crystalline Form P with 2.9 wt % of water were prepared using similar procedures as described in Method A. Dichloromethane (15V) and n-propyl acetate (35 V) were used as solvents and the DSC/TGA graph is shown in FIG. 25. Crystalline Form P with 2.9 wt % of water was ground in water using a mortar and pestle to produce a viscous slurry. The sample was rapidly prepared, covered with Kapton film and analyzed by PXRD.

In the case of `Cn1cc(Nc2nccc(-c3ccc4c(c3)CN(C3COC3)CC[C@H]4NC(=O)c3cn(C(C)(C)C)nn3)n2)cn1` [Form H, (R)-1-(tert-butyl)-N-(8-(2-((1-methyl-1H-pyrazol-4-yl)amino)pyrimidin-4-yl)-2-(oxetan-3-yl)-2,3,4,5-tetrahydro-1H-benzo[c]azepin-5-yl)-1H-1,2,3-triazole-4-carboxamide], the “form conversion after heating (PXRD before/after)” value [1] is reported as “no form conversion”.
In the case of `Cn1cc(Nc2nccc(-c3ccc4c(c3)CN(C3COC3)CC[C@H]4NC(=O)c3cn(C(C)(C)C)nn3)n2)cn1` [Form C, (R)-1-(tert-butyl)-N-(8-(2-((1-methyl-1H-pyrazol-4-yl)amino)pyrimidin-4-yl)-2-(oxetan-3-yl)-2,3,4,5-tetrahydro-1H-benzo[c]azepin-5-yl)-1H-1,2,3-triazole-4-carboxamide], the “form conversion after dehydration (VT-PXRD)” value ([2]; purging with N2 for 20 minutes at 30° C.) is reported as “converted to Form L”.
With `Cn1cc(Nc2nccc(-c3ccc4c(c3)CN(C3COC3)CC[C@H]4NC(=O)c3cn(C(C)(C)C)nn3)n2)cn1` [Form L, (R)-1-(tert-butyl)-N-(8-(2-((1-methyl-1H-pyrazol-4-yl)amino)pyrimidin-4-yl)-2-(oxetan-3-yl)-2,3,4,5-tetrahydro-1H-benzo[c]azepin-5-yl)-1H-1,2,3-triazole-4-carboxamide] the “form conversion after exposure to air (VT-PXRD)” value ([2]; exposure to air for about 2.5 hours, re-absorbs water) was “converts back to Form C”.
In the case of `Cn1cc(Nc2nccc(-c3ccc4c(c3)CN(C3COC3)CC[C@H]4NC(=O)c3cn(C(C)(C)C)nn3)n2)cn1` [Form B, (R)-1-(tert-butyl)-N-(8-(2-((1-methyl-1H-pyrazol-4-yl)amino)pyrimidin-4-yl)-2-(oxetan-3-yl)-2,3,4,5-tetrahydro-1H-benzo[c]azepin-5-yl)-1H-1,2,3-triazole-4-carboxamide], the “form conversion after heating (VT-PXRD)” value ([2]; heated to 130° C. under N2, then cooled back to 30° C.) is reported as “No form conversion”.
In the case of `Cn1cc(Nc2nccc(-c3ccc4c(c3)CN(C3COC3)CC[C@H]4NC(=O)c3cn(C(C)(C)C)nn3)n2)cn1` [Form P, (R)-1-(tert-butyl)-N-(8-(2-((1-methyl-1H-pyrazol-4-yl)amino)pyrimidin-4-yl)-2-(oxetan-3-yl)-2,3,4,5-tetrahydro-1H-benzo[c]azepin-5-yl)-1H-1,2,3-triazole-4-carboxamide], the “PXRD peak shifts after grinding in water” value [3] is reported as “No peak shifts”.
